From patent publication US8349883B2, “Hydroxamate-based inhibitors of deacetylases B” (Novartis AG, priority 2008, dated 2013)
pIC50: −log10 of the molar value.

What was measured:
HDAC-1 = molecular target: T1, HDAC-1 (Homo sapiens, UniProt Q13547); assay: HDAC inhibition assay (purified GST-HDAC protein); type: biochemical
T1 construct: made in house; host or cells: Sf9 or Sf21 insect cells (baculovirus, donor vector pFB-GSTX3)

HCT116 = HCT116 IC50; type: cell-based; settings: Homo sapiens, HCT-116

T1 sequence (Q13547 whole entry, species assumed): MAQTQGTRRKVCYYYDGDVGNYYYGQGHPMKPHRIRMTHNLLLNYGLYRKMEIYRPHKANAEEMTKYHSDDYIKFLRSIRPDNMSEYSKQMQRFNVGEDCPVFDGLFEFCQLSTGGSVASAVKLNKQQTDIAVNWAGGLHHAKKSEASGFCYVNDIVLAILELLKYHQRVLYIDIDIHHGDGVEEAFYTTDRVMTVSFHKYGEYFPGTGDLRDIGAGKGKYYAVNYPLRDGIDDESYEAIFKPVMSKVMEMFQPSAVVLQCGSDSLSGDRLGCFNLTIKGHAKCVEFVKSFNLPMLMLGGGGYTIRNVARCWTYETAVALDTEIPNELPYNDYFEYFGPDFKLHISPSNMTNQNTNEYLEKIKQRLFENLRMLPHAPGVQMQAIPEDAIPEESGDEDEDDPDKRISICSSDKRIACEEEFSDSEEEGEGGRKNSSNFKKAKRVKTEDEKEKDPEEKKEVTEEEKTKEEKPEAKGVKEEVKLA

Structure (SMILES): CN1CCN(CCc2cnn3ccccc23)C(c2ccc(/C=C/C(=O)NO)cc2)C1 (stereo not drawn) [Compound 90, (E)-N-Hydroxy-3-{4-[4-methyl-1-(2-pyrazolo[1,5-a]pyridin-3-yl-ethyl)-piperazin-2-yl]-phenyl}-acrylamide]
- pIC50 (HDAC-1): 8.10
- pIC50 (HCT116): 7.47

Structure (SMILES): O=C(/C=C/c1ccc([C@@H]2CCCN2CCc2cnn3ccccc23)c(F)c1)NO [Compound 91, (E)-3-{3-Fluoro-4-[(S)-1-(2-pyrazolo[1,5-a]pyridin-3-yl-ethyl)-pyrrolidin-2-yl]-phenyl}-N-hydroxy-acrylamide]
- pIC50 (HDAC-1): 8.40
- pIC50 (HCT116): 8.70

Structure (SMILES): O=C(/C=C/c1ccc([C@@H]2CCCN2CCc2cnn3ccccc23)c(Cl)c1)NO [Compound 92, (E)-3-{3-Chloro-4-[(S)-1-(2-pyrazolo[1,5-a]pyridin-3-yl-ethyl)-pyrrolidin-2-yl]-phenyl}-N-hydroxy-acrylamide]
- pIC50 (HDAC-1): 8.40
- pIC50 (HCT116): 8.52

Structure (SMILES): O=C(/C=C/c1ccc([C@@H]2CCCN2CCc2cnn3ccccc23)cc1F)NO [Compound 93, (E)-3-{2-Fluoro-4-[(S)-1-(2-pyrazolo[1,5-a]pyridin-3-yl-ethyl)-pyrrolidin-2-yl]-phenyl}-N-hydroxy-acrylamide]
- pIC50 (HDAC-1): 8.85
- pIC50 (HCT116): 8.96

Structure (SMILES): O=C(/C=C/c1cc(F)c([C@@H]2CCCN2CCc2cnn3ccccc23)c(F)c1)NO [Compound 94, (E)-3-{3,5-Difluoro-4-[(S)-1-(2-pyrazolo[1,5-a]pyridin-3-yl-ethyl)-pyrrolidin-2-yl]-phenyl}-N-hydroxy-acrylamide]
- pIC50 (HDAC-1): 8.85
- pIC50 (HCT116): 8.30

Structure (SMILES): Cc1n[nH]c(C)c1CCN1CCC[C@H]1c1ccc(/C=C/C(=O)NO)cc1 [Compound 95, (E)-3-(4-{(S)-1-[2-(3,5-Dimethyl-1H-pyrazol-4-yl)-ethyl]-pyrrolidin-2-yl}-phenyl)-N-hydroxy-acrylamide]
- pIC50 (HDAC-1): 8.80
- pIC50 (HCT116): 8.52

Structure (SMILES): CCn1nc(C)c(CCN2CCC[C@H]2c2ccc(/C=C/C(=O)NO)cc2)c1C [Compound 96, (E)-3-(4-{(S)-1-[2-(1-Ethyl-3,5-dimethyl-1H-pyrazol-4-yl)-ethyl]-pyrrolidin-2-yl}-phenyl)-N-hydroxy-acrylamide]
- pIC50 (HDAC-1): 8.77
- pIC50 (HCT116): 8.70

Structure (SMILES): CCCCn1nc(C)c(CCN2CCC[C@H]2c2ccc(/C=C/C(=O)NO)cc2)c1C [Compound 97, (E)-3-(4-{(S)-1-[2-(1-Butyl-3,5-dimethyl-1H-pyrazol-4-yl)-ethyl]-pyrrolidin-2-yl}-phenyl)-N-hydroxy-acrylamide]
- pIC50 (HDAC-1): 8.77
- pIC50 (HCT116): 8.77

Structure (SMILES): O=C(/C=C/c1ccc([C@@H]2CCCN2CCS(=O)(=O)c2ccccc2)cc1)NO [Compound 98, (E)-3-{4-[(S)-1-(2-Benzenesulfonyl-ethyl)-pyrrolidin-2-yl]-phenyl}-N-hydroxy-acrylamide]
- pIC50 (HDAC-1): 7.44
- pIC50 (HCT116): 7.30

Structure (SMILES): CCc1n[nH]c(CC)c1CCN1CCC[C@H]1c1ccc(/C=C/C(=O)NO)cc1 [Compound 99, (E)-3-(4-{(S)-1-[2-(3,5-Diethyl-1H-pyrazol-4-yl)-ethyl]-pyrrolidin-2-yl}-phenyl)-N-hydroxy-acrylamide]
- pIC50 (HDAC-1): 9.10
- pIC50 (HCT116): 8.85

Structure (SMILES): Cc1[nH]nc(C(C)(C)C)c1CCN1CCC[C@H]1c1ccc(/C=C/C(=O)NO)cc1 [Compound 100, (E)-3-(4-{(S)-1-[2-(3-tert-Butyl-5-methyl-1H-pyrazol-4-yl)-ethyl]-pyrrolidin-2-yl}-phenyl)-N-hydroxy-acrylamide]
- pIC50 (HDAC-1): 9.00
- pIC50 (HCT116): 9.30

Structure (SMILES): CC(C)n1nnc(CCN2CCC[C@H]2c2ccc(/C=C/C(=O)NO)cc2)n1 [Compound 101, (E)-N-Hydroxy-3-(4-{(S)-1-[2-(2-isopropyl-2H-tetrazol-5-yl)-ethyl]-pyrrolidin-2-yl}-phenyl)-acrylamide]
- pIC50 (HDAC-1): 7.24
- pIC50 (HCT116): 6.80

Structure (SMILES): CC(C)n1nnnc1CCN1CCC[C@H]1c1ccc(/C=C/C(=O)NO)cc1 [Compound 102, (E)-N-Hydroxy-3-(4-{(S)-1-[2-(1-isopropyl-1H-tetrazol-5-yl)-ethyl]-pyrrolidin-2-yl}-phenyl)-acrylamide]
- pIC50 (HDAC-1): 7.60
- pIC50 (HCT116): 7.49

Structure (SMILES): CC(C)(C)n1nnc(CCN2CCC[C@H]2c2ccc(/C=C/C(=O)NO)cc2)n1 [Compound 104, (E)-3-(4-{(S)-1-[2-(2-tert-Butyl-2H-tetrazol-5-yl)-ethyl]-pyrrolidin-2-yl}-phenyl)-N-hydroxy-acrylamide]
- pIC50 (HDAC-1): 7.38
- pIC50 (HCT116): 6.44

Structure (SMILES): O=C(/C=C/c1ccc([C@@H]2CCCN2CCc2nnn(C3CCC3)n2)cc1)NO [Compound 105, (E)-3-(4-{(S)-1-[2-(2-Cyclobutyl-2H-tetrazol-5-yl)-ethyl]-pyrrolidin-2-yl}-phenyl)-N-hydroxy-acrylamide]
- pIC50 (HDAC-1): 6.92
- pIC50 (HCT116): 6.80

Structure (SMILES): O=C(/C=C/c1ccc([C@@H]2CCCN2CCc2nnn(-c3ccc([N+](=O)[O-])cc3)n2)cc1)NO [Compound 106, (E)-N-Hydroxy-3-[4-((S)-1-{2-[2-(4-nitro-phenyl)-2H-tetrazol-5-yl]-ethyl}-pyrrolidin-2-yl)-phenyl]-acrylamide]
- pIC50 (HDAC-1): 7.17
- pIC50 (HCT116): 6.74

Structure (SMILES): O=C(/C=C/c1ccc([C@@H]2CCCN2CCc2nnnn2-c2ccc([N+](=O)[O-])cc2)cc1)NO [Compound 107, (E)-N-Hydroxy-3-[4-((S)-1-{2-[1-(4-nitro-phenyl)-1H-tetrazol-5-yl]-ethyl}-pyrrolidin-2-yl)-phenyl]-acrylamide]
- pIC50 (HDAC-1): 6.77
- pIC50 (HCT116): 6.27

Structure (SMILES): CC(C)(C)c1[nH]nnc1CCN1CCC[C@H]1c1ccc(/C=C/C(=O)NO)cc1 [Compound 108, (E)-3-(4-{(S)-1-[2-(5-tert-Butyl-1H-[1,2,3]triazol-4-yl)-ethyl]-pyrrolidin-2-yl}-phenyl)-N-hydroxy-acrylamide]
- pIC50 (HDAC-1): 8.15
- pIC50 (HCT116): 8.00

Structure (SMILES): Cc1nn(C)c(C)c1CCN1CCC[C@@H]1c1ccc(/C=C/C(=O)NO)cc1 [Compound 110, (E)-N-Hydroxy-3-(4-{(R)-1-[2-(1,3,5-trimethyl-1H-pyrazol-4-yl)-ethyl]-pyrrolidin-2-yl}-phenyl)-acrylamide]
- pIC50 (HDAC-1): 7.00
- pIC50 (HCT116): 6.74

Structure (SMILES): Cc1nn(C)c(C)c1CCN1CCC[C@H]1c1ccc(CCC(=O)NO)cc1 [Compound 112, N-Hydroxy-3-(4-{(S)-1-[2-(1,3,5-trimethyl-1H-pyrazol-4-yl)-ethyl]-pyrrolidin-2-yl}-phenyl)-propionamide]
- pIC50 (HDAC-1): 8.00
- pIC50 (HCT116): 7.52

Structure (SMILES): CC(C)n1nnnc1CCN1CCC[C@H]1c1ccc(CCC(=O)NO)cc1 [Compound 115, N-Hydroxy-3-(4-{(S)-1-[2-(1-isopropyl-1H-tetrazol-5-yl)-ethyl]-pyrrolidin-2-yl}-phenyl)-propionamide]
- pIC50 (HDAC-1): 7.60
- pIC50 (HCT116): 7.49

Structure (SMILES): Cc1c(CCN2CCC[C@H]2c2ccc(/C=C/C(=O)NO)cc2)c(=O)n(-c2ccccc2)n1C [Compound 116, (E)-3-(4-{(S)-1-[2-(1,5-Dimethyl-3-oxo-2-phenyl-2,3-dihydro-1H-pyrazol-4-yl)-ethyl]-pyrrolidin-2-yl}-phenyl)-N-hydroxy-acrylamide]
- pIC50 (HDAC-1): 7.70
- pIC50 (HCT116): 7.31

Structure (SMILES): CC(C)(O)c1nn2ccccc2c1CCN1CCC[C@@H]1c1ccc(CCC(=O)NO)cc1 [Compound 120, N-Hydroxy-3-[4-((R)-1-{2-[2-(1-hydroxy-1-methyl-ethyl)-pyrazolo[1,5-a]pyridin-3-yl]-ethyl}-pyrrolidin-2-yl)-phenyl]-propionamide]
- pIC50 (HDAC-1): 7.12
- pIC50 (HCT116): 6.29

Structure (SMILES): O=C(CCc1ccc([C@H]2CCCN2CCc2cnn3ccccc23)cc1)NO [Compound 121, N-Hydroxy-3-{4-[(R)-1-(2-pyrazolo[1,5-a]pyridin-3-yl-ethyl)-pyrrolidin-2-yl]-phenyl}-propionamide]
- pIC50 (HDAC-1): 7.51
- pIC50 (HCT116): 6.74
